Measured values from PubChem BioAssay (NCI).
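Step 1: Grow cells in 96-well plates. Step 2: Expose to compound for 48 hours at 5 concentrations. Step 3: Interpolate endpoints linearly; if unreached, use highest concentration. The concentration for 50% growth inhibition is given as GI50. The concentration for full growth arrest is given as TGI.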

Tests used:
Experiment in all cases: NCI tumour cell line growth inhibition, 48 h
786-0 renal = system: 786-0 renal
A498 renal = system: A498 renal
A549 NSCLC = system: A549 NSCLC
ACHN renal = system: ACHN renal
CAKI-1 renal = system: CAKI-1 renal
CCRF-CEM leukemia = system: CCRF-CEM leukemia
COLO 205 colon = system: COLO 205 colon
DU-145 prostate = system: DU-145 prostate
EKVX NSCLC = system: EKVX NSCLC
HCC-2998 colon = system: HCC-2998 colon
HCT-116 colon = system: HCT-116 colon
HCT-15 colon = system: HCT-15 colon
HOP-62 NSCLC = system: HOP-62 NSCLC
HOP-92 NSCLC = system: HOP-92 NSCLC
HS 578T breast = system: HS 578T breast
IGROV1 ovarian = system: IGROV1 ovarian
K-562 leukemia = system: K-562 leukemia
KM12 colon = system: KM12 colon
LOX IMVI melanoma = system: LOX IMVI melanoma
M14 melanoma = system: M14 melanoma
MALME-3M melanoma = system: MALME-3M melanoma
MCF7 breast = system: MCF7 breast
MDA-MB-231 breast = system: MDA-MB-231 breast
MDA-MB-435 = system: MDA-MB-435
MOLT-4 leukemia = system: MOLT-4 leukemia
NCI-H226 lung = system: NCI-H226 lung
NCI-H23 lung = system: NCI-H23 lung
NCI-H460 lung = system: NCI-H460 lung
NCI/ADR-RES ovarian = system: NCI/ADR-RES ovarian
OVCAR-3 ovarian = system: OVCAR-3 ovarian
OVCAR-4 ovarian = system: OVCAR-4 ovarian
OVCAR-5 ovarian = system: OVCAR-5 ovarian
OVCAR-8 ovarian = system: OVCAR-8 ovarian
PC-3 prostate = system: PC-3 prostate
RPMI-8226 leukemia = system: RPMI-8226 leukemia
RXF 393 renal = system: RXF 393 renal
SF-268 CNS = system: SF-268 CNS
SF-295 CNS = system: SF-295 CNS
SF-539 CNS = system: SF-539 CNS
SK-MEL-28 melanoma = system: SK-MEL-28 melanoma
SK-MEL-5 melanoma = system: SK-MEL-5 melanoma
SK-OV-3 ovarian = system: SK-OV-3 ovarian
SN12C renal = system: SN12C renal
SNB-19 CNS = system: SNB-19 CNS
SNB-75 CNS = system: SNB-75 CNS
SR leukemia = system: SR leukemia
SW-620 colon = system: SW-620 colon
T-47D breast = system: T-47D breast
U251 CNS = system: U251 CNS
UACC-257 melanoma = system: UACC-257 melanoma
UACC-62 melanoma = system: UACC-62 melanoma
UO-31 renal = system: UO-31 renal

CCCCCCCCCCCCC(NC(C)=O)(C(=O)OCC)C(=O)OCC
GI50 (786-0 renal): 14.9 µM
TGI (786-0 renal): 29.3 µM
GI50 (A498 renal): 13.5 µM
TGI (A498 renal): 26.6 µM
GI50 (A549 NSCLC): 14.3 µM
TGI (A549 NSCLC): 32.5 µM
GI50 (ACHN renal): 12.6 µM
TGI (ACHN renal): 25.3 µM
GI50 (CAKI-1 renal): 10.6 µM
TGI (CAKI-1 renal): 27.4 µM
GI50 (CCRF-CEM leukemia): 16.8 µM
TGI (CCRF-CEM leukemia): 41.6 µM
GI50 (COLO 205 colon): 12.8 µM
TGI (COLO 205 colon): 26.3 µM
GI50 (DU-145 prostate): 15.1 µM
TGI (DU-145 prostate): 28.6 µM
GI50 (EKVX NSCLC): 6.99 µM
TGI (EKVX NSCLC): 26.1 µM
GI50 (HCC-2998 colon): 12.5 µM
TGI (HCC-2998 colon): 26.2 µM
GI50 (HCT-116 colon): 5.83 µM
TGI (HCT-116 colon): 19.2 µM
GI50 (HCT-15 colon): 9.38 µM
TGI (HCT-15 colon): 23 µM
GI50 (HOP-62 NSCLC): 13.9 µM
TGI (HOP-62 NSCLC): 27.5 µM
GI50 (HOP-92 NSCLC): 12.2 µM
TGI (HOP-92 NSCLC): 25.4 µM
GI50 (HS 578T breast): 14 µM
TGI (HS 578T breast): 45.8 µM
GI50 (IGROV1 ovarian): 12.6 µM
TGI (IGROV1 ovarian): 37.2 µM
GI50 (K-562 leukemia): 7.55 µM
TGI (K-562 leukemia): > 100 µM
GI50 (KM12 colon): 11.1 µM
TGI (KM12 colon): 28.9 µM
GI50 (LOX IMVI melanoma): 11.8 µM
TGI (LOX IMVI melanoma): 25.2 µM
GI50 (M14 melanoma): 12.7 µM
TGI (M14 melanoma): 27.3 µM
GI50 (MALME-3M melanoma): 12.5 µM
TGI (MALME-3M melanoma): 29.1 µM
GI50 (MCF7 breast): 7.41 µM
TGI (MCF7 breast): 21.2 µM
GI50 (MDA-MB-231 breast): 12.6 µM
TGI (MDA-MB-231 breast): 26.7 µM
GI50 (MDA-MB-435): 12.6 µM
TGI (MDA-MB-435): 31.7 µM
GI50 (MOLT-4 leukemia): 18.2 µM
TGI (MOLT-4 leukemia): 62.4 µM
GI50 (NCI-H226 lung): 12.5 µM
TGI (NCI-H226 lung): 27.2 µM
GI50 (NCI-H23 lung): 10.8 µM
TGI (NCI-H23 lung): 24.8 µM
GI50 (NCI-H460 lung): 7.65 µM
TGI (NCI-H460 lung): 24 µM
GI50 (NCI/ADR-RES ovarian): 10.3 µM
TGI (NCI/ADR-RES ovarian): 23.7 µM
GI50 (OVCAR-3 ovarian): 11.7 µM
TGI (OVCAR-3 ovarian): 25.4 µM
GI50 (OVCAR-4 ovarian): 10.4 µM
TGI (OVCAR-4 ovarian): 22.2 µM
GI50 (OVCAR-5 ovarian): 13.7 µM
TGI (OVCAR-5 ovarian): 27.3 µM
GI50 (OVCAR-8 ovarian): 12.7 µM
TGI (OVCAR-8 ovarian): 32.3 µM
GI50 (PC-3 prostate): 7.03 µM
TGI (PC-3 prostate): 21.1 µM
GI50 (RPMI-8226 leukemia): 10.8 µM
TGI (RPMI-8226 leukemia): 44.8 µM
GI50 (RXF 393 renal): 13.7 µM
TGI (RXF 393 renal): 27 µM
GI50 (SF-268 CNS): 13.4 µM
TGI (SF-268 CNS): 28.5 µM
GI50 (SF-295 CNS): 11.2 µM
TGI (SF-295 CNS): 26.9 µM
GI50 (SF-539 CNS): 16 µM
TGI (SF-539 CNS): 33.1 µM
GI50 (SK-MEL-28 melanoma): 13.5 µM
TGI (SK-MEL-28 melanoma): 26.9 µM
GI50 (SK-MEL-5 melanoma): 3.87 µM
TGI (SK-MEL-5 melanoma): 16 µM
GI50 (SK-OV-3 ovarian): 12.6 µM
TGI (SK-OV-3 ovarian): 25.7 µM
GI50 (SN12C renal): 10.2 µM
TGI (SN12C renal): 22 µM
GI50 (SNB-19 CNS): 12.8 µM
TGI (SNB-19 CNS): 25.6 µM
GI50 (SNB-75 CNS): 11.3 µM
TGI (SNB-75 CNS): 23.8 µM
GI50 (SR leukemia): 6.94 µM
TGI (SR leukemia): 48.2 µM
GI50 (SW-620 colon): 13 µM
TGI (SW-620 colon): 26.9 µM
GI50 (T-47D breast): 5.43 µM
TGI (T-47D breast): 20.7 µM
GI50 (U251 CNS): 12.4 µM
TGI (U251 CNS): 28.5 µM
GI50 (UACC-257 melanoma): 11.7 µM
TGI (UACC-257 melanoma): 26.1 µM
GI50 (UACC-62 melanoma): 4.88 µM
TGI (UACC-62 melanoma): 19.6 µM
GI50 (UO-31 renal): 7.39 µM
TGI (UO-31 renal): 27.5 µM
